Common to all, as to assay: HotSpot kinase profiling
Common to all, as to format: biochemical

The target of experiment [1] is T1, NLK (Homo sapiens, UniProt Q9UBE8).
T1 construct: purchased Reaction Biology Corp
T1 sequence (Q9UBE8 1-527): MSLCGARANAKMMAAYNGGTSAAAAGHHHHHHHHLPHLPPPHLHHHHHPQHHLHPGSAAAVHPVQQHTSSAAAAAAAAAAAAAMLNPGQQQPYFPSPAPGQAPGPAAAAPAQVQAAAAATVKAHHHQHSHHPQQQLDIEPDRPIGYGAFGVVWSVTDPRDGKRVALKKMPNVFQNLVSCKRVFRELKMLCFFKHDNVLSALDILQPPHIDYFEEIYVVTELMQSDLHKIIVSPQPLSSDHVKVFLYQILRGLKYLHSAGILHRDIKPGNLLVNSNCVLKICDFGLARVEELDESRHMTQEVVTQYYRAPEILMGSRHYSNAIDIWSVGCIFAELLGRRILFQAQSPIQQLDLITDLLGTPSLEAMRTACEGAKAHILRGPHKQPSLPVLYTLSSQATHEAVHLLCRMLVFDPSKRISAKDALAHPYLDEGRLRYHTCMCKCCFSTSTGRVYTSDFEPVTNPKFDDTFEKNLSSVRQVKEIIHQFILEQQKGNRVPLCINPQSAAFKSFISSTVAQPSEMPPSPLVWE
The gist of the method: (§1)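 Percent inhibition, averaged when run more than once and referenced to a DMSO negative control, came from a radioactive filter-binding readout on P81 paper. Reactions of kinase with freshly made substrate and cofactors ran for 2 h at room temperature.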

Experiment [2] has as its target T2, KDR/VEGFR2 (Homo sapiens, UniProt P35968).
T2 construct: purchased Reaction Biology Corp
The method in brief: as §1

Experiment [3] has as its target T3, IRAK4 (Homo sapiens, UniProt Q9NWZ3).
T3 construct: purchased Reaction Biology Corp
T3 sequence (Q9NWZ3 1-460): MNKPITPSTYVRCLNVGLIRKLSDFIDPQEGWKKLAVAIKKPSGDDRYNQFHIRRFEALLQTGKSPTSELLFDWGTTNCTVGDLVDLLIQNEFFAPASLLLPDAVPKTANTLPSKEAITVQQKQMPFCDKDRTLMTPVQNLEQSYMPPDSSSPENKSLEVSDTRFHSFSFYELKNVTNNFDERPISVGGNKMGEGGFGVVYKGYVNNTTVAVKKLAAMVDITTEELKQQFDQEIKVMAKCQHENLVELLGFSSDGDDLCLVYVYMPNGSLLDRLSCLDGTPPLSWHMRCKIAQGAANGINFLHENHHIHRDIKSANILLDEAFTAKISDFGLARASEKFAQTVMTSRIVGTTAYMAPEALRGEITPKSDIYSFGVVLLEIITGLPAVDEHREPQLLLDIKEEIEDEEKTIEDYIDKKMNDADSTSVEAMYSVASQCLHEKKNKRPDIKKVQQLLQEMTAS
The gist of the method: as §1

The target in experiment [4] is T4, ALK4/ACVR1B (Homo sapiens, UniProt P36896).
T4 construct: purchased Reaction Biology Corp
T4 sequence (P36896 24-505): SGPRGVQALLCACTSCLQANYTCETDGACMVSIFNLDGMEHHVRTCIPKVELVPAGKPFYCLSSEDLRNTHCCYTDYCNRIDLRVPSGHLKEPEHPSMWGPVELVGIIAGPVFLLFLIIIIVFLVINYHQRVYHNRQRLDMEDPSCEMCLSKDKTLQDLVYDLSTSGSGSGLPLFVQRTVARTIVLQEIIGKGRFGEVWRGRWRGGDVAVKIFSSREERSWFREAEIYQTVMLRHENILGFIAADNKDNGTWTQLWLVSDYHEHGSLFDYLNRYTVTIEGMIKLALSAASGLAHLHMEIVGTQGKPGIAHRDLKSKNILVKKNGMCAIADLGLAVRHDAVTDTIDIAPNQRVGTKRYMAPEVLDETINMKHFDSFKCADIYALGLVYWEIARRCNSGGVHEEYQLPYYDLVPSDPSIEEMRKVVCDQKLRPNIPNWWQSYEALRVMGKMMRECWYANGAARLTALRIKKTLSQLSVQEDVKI
The method in brief: as §1

The target in experiment [5] is T5, WNK3 (Homo sapiens, UniProt Q9BYP7).
T5 construct: purchased Reaction Biology Corp
The method in brief: as §1

Experiment [6] concerns the target T6, FYN (Homo sapiens, UniProt P06241).
T6 construct: purchased Reaction Biology Corp
The method in brief: as §1

Experiment [7] concerns the target T7, NEK2 (Homo sapiens, UniProt P51955).
T7 construct: purchased Reaction Biology Corp
T7 sequence (P51955 1-445): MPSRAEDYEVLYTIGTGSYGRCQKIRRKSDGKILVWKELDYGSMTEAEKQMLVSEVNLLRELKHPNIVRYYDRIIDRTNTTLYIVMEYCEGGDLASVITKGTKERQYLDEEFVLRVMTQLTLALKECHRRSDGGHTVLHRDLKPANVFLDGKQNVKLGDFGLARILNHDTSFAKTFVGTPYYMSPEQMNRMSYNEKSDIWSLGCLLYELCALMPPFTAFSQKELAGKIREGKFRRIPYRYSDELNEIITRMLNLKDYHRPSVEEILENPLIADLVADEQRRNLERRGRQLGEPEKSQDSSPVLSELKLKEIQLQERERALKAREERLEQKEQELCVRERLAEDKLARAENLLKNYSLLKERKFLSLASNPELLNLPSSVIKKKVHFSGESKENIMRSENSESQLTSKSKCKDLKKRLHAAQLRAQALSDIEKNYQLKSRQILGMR
The gist of the method: as §1

Where [8] appears, read: read-out: % Enzyme Activity (relative to DMSO controls) Run 1.
[9] abbreviates: read-out: % Enzyme Activity (relative to DMSO controls) Run 2.

Read-outs that look alike come from different tables or passages of the source.

T5 sequence (Q9BYP7 whole entry): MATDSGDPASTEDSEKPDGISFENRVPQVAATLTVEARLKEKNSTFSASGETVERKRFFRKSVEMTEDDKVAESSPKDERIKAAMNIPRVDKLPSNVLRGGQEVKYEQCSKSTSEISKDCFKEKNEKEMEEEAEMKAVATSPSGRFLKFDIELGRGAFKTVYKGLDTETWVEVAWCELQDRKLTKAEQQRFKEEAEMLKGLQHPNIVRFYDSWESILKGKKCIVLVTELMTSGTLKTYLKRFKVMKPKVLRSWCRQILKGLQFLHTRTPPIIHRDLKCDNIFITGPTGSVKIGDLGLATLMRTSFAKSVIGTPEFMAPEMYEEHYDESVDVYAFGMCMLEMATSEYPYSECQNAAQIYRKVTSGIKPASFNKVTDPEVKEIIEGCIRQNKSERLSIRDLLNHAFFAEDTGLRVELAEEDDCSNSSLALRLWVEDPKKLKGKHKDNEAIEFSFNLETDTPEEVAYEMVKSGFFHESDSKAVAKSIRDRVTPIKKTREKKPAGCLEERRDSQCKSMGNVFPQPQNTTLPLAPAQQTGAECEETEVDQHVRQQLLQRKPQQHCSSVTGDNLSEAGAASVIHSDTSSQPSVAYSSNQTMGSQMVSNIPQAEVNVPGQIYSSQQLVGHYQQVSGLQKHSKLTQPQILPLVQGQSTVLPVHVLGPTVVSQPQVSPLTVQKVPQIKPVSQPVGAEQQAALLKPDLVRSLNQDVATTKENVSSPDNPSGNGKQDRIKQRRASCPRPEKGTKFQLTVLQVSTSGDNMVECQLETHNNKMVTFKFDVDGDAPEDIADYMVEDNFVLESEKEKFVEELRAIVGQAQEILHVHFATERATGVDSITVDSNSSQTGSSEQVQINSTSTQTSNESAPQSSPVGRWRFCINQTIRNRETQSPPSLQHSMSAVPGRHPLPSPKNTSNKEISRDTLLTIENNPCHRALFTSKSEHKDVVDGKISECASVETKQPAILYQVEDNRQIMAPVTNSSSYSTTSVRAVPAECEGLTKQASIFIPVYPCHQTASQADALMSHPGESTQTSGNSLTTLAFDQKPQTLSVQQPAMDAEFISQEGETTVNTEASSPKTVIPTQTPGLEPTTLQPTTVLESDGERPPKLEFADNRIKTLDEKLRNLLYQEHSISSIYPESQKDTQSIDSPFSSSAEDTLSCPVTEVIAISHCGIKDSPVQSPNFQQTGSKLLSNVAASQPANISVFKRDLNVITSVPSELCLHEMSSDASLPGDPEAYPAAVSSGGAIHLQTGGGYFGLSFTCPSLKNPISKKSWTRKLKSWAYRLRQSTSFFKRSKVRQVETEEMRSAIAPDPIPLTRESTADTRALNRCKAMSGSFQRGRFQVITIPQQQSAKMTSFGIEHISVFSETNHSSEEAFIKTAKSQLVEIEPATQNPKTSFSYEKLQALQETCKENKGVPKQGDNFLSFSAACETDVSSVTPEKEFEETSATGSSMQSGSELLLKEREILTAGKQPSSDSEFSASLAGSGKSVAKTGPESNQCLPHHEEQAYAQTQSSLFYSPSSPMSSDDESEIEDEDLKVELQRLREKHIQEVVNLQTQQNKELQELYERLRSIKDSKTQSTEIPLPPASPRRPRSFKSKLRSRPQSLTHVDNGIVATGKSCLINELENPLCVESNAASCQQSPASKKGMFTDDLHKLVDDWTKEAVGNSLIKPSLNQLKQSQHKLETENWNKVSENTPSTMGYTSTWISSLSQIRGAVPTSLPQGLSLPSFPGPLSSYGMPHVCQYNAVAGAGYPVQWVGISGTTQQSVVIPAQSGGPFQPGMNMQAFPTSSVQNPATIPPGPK
T6 sequence (P06241 whole entry): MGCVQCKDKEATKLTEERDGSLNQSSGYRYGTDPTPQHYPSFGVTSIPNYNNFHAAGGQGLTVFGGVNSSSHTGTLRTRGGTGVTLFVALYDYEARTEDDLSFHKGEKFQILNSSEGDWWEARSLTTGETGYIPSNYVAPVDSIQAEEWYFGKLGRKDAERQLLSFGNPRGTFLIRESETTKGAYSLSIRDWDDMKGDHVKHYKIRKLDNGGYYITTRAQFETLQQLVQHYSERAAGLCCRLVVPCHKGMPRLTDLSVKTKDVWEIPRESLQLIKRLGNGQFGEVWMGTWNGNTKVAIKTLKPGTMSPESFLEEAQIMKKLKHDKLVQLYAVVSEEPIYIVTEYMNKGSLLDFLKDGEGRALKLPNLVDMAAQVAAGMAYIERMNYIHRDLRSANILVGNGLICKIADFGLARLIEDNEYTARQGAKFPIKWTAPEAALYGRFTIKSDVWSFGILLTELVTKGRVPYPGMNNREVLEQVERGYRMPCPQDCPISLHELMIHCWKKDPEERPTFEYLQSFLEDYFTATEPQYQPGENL
T2 sequence (P35968 20-1356): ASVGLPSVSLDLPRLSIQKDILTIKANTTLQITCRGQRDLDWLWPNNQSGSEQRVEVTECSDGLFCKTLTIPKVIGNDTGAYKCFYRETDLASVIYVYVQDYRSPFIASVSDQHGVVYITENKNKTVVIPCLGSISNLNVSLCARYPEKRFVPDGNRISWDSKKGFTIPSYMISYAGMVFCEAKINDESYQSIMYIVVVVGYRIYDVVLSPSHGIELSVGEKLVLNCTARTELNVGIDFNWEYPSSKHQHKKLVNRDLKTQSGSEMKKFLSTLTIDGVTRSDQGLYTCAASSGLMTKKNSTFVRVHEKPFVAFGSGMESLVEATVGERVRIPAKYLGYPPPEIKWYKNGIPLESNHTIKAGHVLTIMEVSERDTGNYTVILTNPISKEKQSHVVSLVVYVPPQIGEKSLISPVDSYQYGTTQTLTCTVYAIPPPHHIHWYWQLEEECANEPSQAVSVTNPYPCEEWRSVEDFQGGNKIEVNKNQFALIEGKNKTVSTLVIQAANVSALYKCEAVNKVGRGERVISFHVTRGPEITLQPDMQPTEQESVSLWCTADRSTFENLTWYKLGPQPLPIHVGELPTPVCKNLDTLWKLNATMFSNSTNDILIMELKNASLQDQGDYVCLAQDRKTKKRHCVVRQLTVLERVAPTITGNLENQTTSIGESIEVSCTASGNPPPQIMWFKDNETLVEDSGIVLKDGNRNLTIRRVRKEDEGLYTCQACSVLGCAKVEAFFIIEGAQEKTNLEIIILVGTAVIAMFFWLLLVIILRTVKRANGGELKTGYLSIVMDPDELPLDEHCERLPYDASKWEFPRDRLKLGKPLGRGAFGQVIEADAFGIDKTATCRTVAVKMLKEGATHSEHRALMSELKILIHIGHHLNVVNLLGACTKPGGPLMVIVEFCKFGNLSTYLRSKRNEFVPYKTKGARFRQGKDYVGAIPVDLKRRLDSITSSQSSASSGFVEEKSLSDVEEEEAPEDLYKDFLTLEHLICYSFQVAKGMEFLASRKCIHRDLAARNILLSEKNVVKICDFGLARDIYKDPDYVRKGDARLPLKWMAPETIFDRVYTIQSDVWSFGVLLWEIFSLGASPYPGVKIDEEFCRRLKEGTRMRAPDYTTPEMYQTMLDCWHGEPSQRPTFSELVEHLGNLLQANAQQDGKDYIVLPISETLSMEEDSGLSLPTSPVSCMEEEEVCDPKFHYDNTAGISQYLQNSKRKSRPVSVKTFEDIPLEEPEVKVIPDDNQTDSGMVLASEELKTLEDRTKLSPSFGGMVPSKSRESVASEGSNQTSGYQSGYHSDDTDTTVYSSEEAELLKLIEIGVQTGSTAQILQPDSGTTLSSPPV

Consider `C=CC(=O)Nc1cccc(Nc2nc(Nc3ccc(OCCOC)c(F)c3)ncc2F)c1` [Compound 2], for which the inhibition at 3 µM in experiment [1] is -1.29%; in experiment [2], 17.7%; in experiment [3], 12.4%; in experiment [4] it was -42.2%; in experiment [5], 8.34%; in experiment [6] it was 18.5%. The inhibition at 3 µM in experiment [7] is -4.44%. In addition, the remaining activity at 3 µM in experiment [1] (setting [8]) was 99.6%; in experiment [1] (setting [9]), 103%; in experiment [2] (setting [8]) it was 83.3%; in experiment [2] (setting [9]) it was 81.2%; in experiment [3] (setting [8]), 88.6%; in experiment [3] (setting [9]) it was 86.5%. Also, the remaining activity at 3 µM is 141% in experiment [4] (setting [8]); 144% in experiment [4] (setting [9]); 91.3% in experiment [5] (setting [8]); 92% in experiment [5] (setting [9]); 81.1% in experiment [6] (setting [8]); 81.8% in experiment [6] (setting [9]). The remaining activity at 3 µM was determined as 102% in experiment [7] (setting [8]) and 107% in experiment [7] (setting [9]).

Values taken from US9492471B2, “Methods of treating a disease or disorder associated with Bruton'S Tyrosine Kinase” (Celgene Avilomics Research, Inc., priority 2013, dated 2016).
